Laboratory results published in the NIST ThermoML archive (doi:10.1021/acs.jced.6b00355).
± gives the expanded uncertainty stated by the source.

What was measured:
[1] = Molar enthalpy of transition or fusion; settings: Crystal; DSC
[2] = Crystal; DTA

| SMILES | Molar enthalpy of transition or fusion [1] [kcal/mol] | Normal melting temperature [2] [°C] |
| --- | --- | --- |
| CCCCCCCCCCCCCCCC(=O)OCC(COC(=O)CCCCCCCCCCCCCCC)OC(=O)CCCCCCCCCCCCCCC [1,2,3-propanetriyl tri(hexadecanoate)] | 43.3 ± 1.24 | 67.6 ± 0.7 |
| CCCCCCCCCCCCCC(=O)OCC(COC(=O)CCCCCCCCCCCCC)OC(=O)CCCCCCCCCCCCC [1,2,3-propanetriyl tri(tetradecanoate)] | 36.7 ± 1.48 | 58.0 ± 0.7 |
| CCCCCCCCCCCC(=O)O [dodecanoic acid] | 8.99 ± 0.213 | 44.2 ± 0.7 |
| CCCCCCCCCCCCCCCCCC(=O)OCC(COC(=O)CCCCCCCCCCCCCCCCC)OC(=O)CCCCCCCCCCCCCCCCC [glycerol trioctadecanoate] | 46.7 ± 2.06 | 73.5 ± 0.7 |
| CCCCCCCCCCCCCCCC [hexadecane] | – | 18.2 ± 0.7 |
| CCCCCCCCCCCCCCCC(=O)O [hexadecanoic acid] | 13.3 ± 0.359 | 62.8 ± 0.7 |

Other lines, results leading:

| Molar enthalpy of transition or fusion [1] [kcal/mol] | Normal melting temperature [2] [°C] | SMILES |
| --- | --- | --- |
| 30.4 ± 0.598 | 48.8 ± 0.7 | CCCCCCCCCCCC(=O)OCC(COC(=O)CCCCCCCCCCC)OC(=O)CCCCCCCCCCC [1,2,3-propanetriyl tridodecanoate] |
| 15.1 ± 0.406 | 70.0 ± 0.7 | CCCCCCCCCCCCCCCCCC(=O)O [octadecanoic acid] |
| 10.7 ± 0.263 | 54.5 ± 0.7 | CCCCCCCCCCCCCC(=O)O [tetradecanoic acid] |
